Read-outs that look alike come from different tables or passages of the source.
Assays:
[1] = system: RPEMYC^H2B-GFP cells; assay: Mechanism-informed phenotypic screening assay (mitotic arrest, polyploidy; GE IN-Cell Analyzer 2000); format: cell-based; conditions: 20 nM to 20 μM, 24, 48 or 72 hours; for minimal effective concentration: read-out: Min. Effective conc. for polyploidy (≥5%)
Method: We have Previously Developed a Mechanism-Informed Phenotypic Screening Assay to identify novel antimitotic agents (Li et al. 2019). Equipped with a prior understanding of the versatile functions of the chromosomal passenger protein (CPP) complex in orchestrating karyokinesis and cytokinesis, the screening assay is to score for phenotypes typically seen when the CPP complex is disabled. Specifically, the parameters for a positive hit are a temporary elevation of mitotic index (MI) at 24 hours of drug treatment and an accumulation of polyploid cells at 48 hours of drug treatment, indicative of mitotic arrest and cytokinetic failure respectively. These parameters exclude compounds that elicit only a prolonged arrest of cells in mitosis, a phenotype typically provoked by spindle toxins. The screening procedure is briefly summarized here. RPEMYC^H2B-GFP cells engineered to express a Histone 2B-EGFP fusion protein were passaged as batches of 96-well plates, 18-24 hours before exposure to the chemical compounds of the present disclosure at concentrations from 20 nM to 20 μM. At 24, 48 or 72 hours after initiation of treatment, cells were analyzed for either an arrest in mitosis or a change in DNA content by GE IN-Cell Analyzer 2000. As set forth in table 2 below, a value of greater than or equal to […] and less than or equal to 1.0 μM is marked e “A”; a value greater than […] and less than or equal to 10.0 μM is marked “B”; a value greater than 10.0 μM and less than or equal to 30.0 μM is marked “C”; and a value greater than 30.0 μM is marked “D.”

[2] = system: RPEMYC^H2B-GFP cells; assay: as above; format: cell-based; conditions: 20 nM to 20 μM, 24, 48 or 72 hours, read-out: Mitotic Arrest (≥5%)

SMILES	minimal effective concentration [1] [µM]	minimal effective concentration [2] [µM]	Min. Effective conc. for polyploidy (≥5%) [1]	Mitotic Arrest (≥5%) [1]
COc1cc(OC)cc(Oc2ncccc2-c2ccccc2)c1 [Compound 55, 2-(3,5-dimethoxyphenoxy)-3-phenylpyridine]	0.001 to 10	0.001 to 10	–	–
CNC(=O)c1cc(Oc2ncccc2-c2ccnc(C)c2)cc(-c2cnn(C)c2)c1 [Compound 89, N-methyl-3-(1-methyl-1H-pyrazol-4-yl)-5-((2′-methyl-[3,4′-bipyridin]-2-yl)oxy)benzamide]	1	1	–	–
CCOc1cc(Oc2ncccc2-c2ccncc2)cc(C(=O)NC)c1 [Compound 6, 3-([3,4′-bipyridin]-2-yloxy)-5-ethoxy-N-methylbenzamide]	1	1	–	–
COc1cc(OC)cc(Oc2ncccc2-c2ccncc2N)c1 [Compound 65, 2-(3,5-dimethoxyphenoxy)-[3,4′-bipyridin]-3′-amine]	0.001 to 10	0.001 to 10	–	–
COc1cc(OC)cc(Oc2ncccc2-c2ccnc(N)c2)c1 [Compound 61, 2-(3,5-dimethoxyphenoxy)-[3,4′-bipyridin]-2′-amine]	1	1	–	–
CNC(=O)c1cc(OC)cc(Oc2ncccc2-c2cccc(F)c2)c1 [Compound 92, 3-((3-(3-fluorophenyl)pyridin-2-yl)oxy)-5-methoxy-N-methylbenzamide]	1	1	–	–
CNC(=O)c1cc(OC)cc(Oc2nccnc2-c2ccncc2)c1 [Compound 18, 3-methoxy-N-methyl-5-((3-(pyridin-4-yl)pyrazin-2-yl)oxy)benzamide]	1	1	–	–
COc1cc(OC)cc(Oc2nccnc2-c2ccncc2)c1 [Compound 15, 2-(3,5-dimethoxyphenoxy)-3-(pyridin-4-yl)pyrazine]	1	1	–	–
COc1cc(Oc2ncccc2-c2ccnc(N)n2)cc(C(=O)O)c1 [Compound 24, 3-((3-(2-aminopyrimidin-4-yl)pyridin-2-yl)oxy)-5-methoxybenzoic acid]	> 30	> 30	–	–
COc1cc(OC)cc(Oc2ncccc2-c2ccnc(Cl)c2)c1 [Compound 44, 2′-chloro-2-(3,5-dimethoxyphenoxy)-3,4′-bipyridine]	1	1	–	–
CNc1cc(-c2cccnc2Oc2cc(OC)cc(OC)c2)ncn1 [Compound 64, 6-(2-(3,5-dimethoxyphenoxy)pyridin-3-yl)-N-methylpyrimidin-4-amine]	0.001 to 10	0.001 to 10	–	–
COc1cc(NC(C)=O)cc(Oc2ncccc2-c2ncccn2)c1 [Compound 93, N-(3-methoxy-5-((3-(pyrimidin-2-yl)pyridin-2-yl)oxy)phenyl)acetamide]	–	–	inactive	inactive
CCOCCOc1cc(-c2cccnc2Oc2cc(OC)cc(-n3cccn3)c2)ccn1 [Compound 86, 2′-(2-ethoxyethoxy)-2-(3-methoxy-5-(1H-pyrazol-1-yl)phenoxy)-3,4′-bipyridine]	1	1	–	–
COc1cc(Oc2ncccc2-c2ccncc2)cc(O[C@H]2CCOC2)c1 [Compound 94, (S)-2-(3-methoxy-5-((tetrahydrofuran-3-yl)oxy)phenoxy)-3,4′-bipyridine]	1	1	–	–
COc1cc(OC)cc(Oc2ncccc2-c2cc(OC)cc(OC)c2)c1 [Compound 58, 2-(3,5-dimethoxyphenoxy)-3-(3,5-dimethoxyphenyl)pyridine]	1	1	–	–
COc1cc(OC)cc(Oc2cncc(-c3cccnc3)n2)c1 [Compound 82, 2-(3,5-dimethoxyphenoxy)-6-(pyridin-3-yl)pyrazine]	0.001 to 10	0.001 to 10	–	–
COc1cc(Oc2ncccc2-c2ccnc(C)c2)cc(C(=O)NC2CC2)c1 [Compound 98, N-cyclopropyl-3-methoxy-5-((2′-methyl-[3,4′-bipyridin]-2-yl)oxy)benzamide]	1	1	–	–
COC(=O)c1cc(Oc2ncccc2-c2ccccc2)cc(C(=O)OC)c1 [Compound 56, dimethyl 5-((3-phenylpyridin-2-yl)oxy)isophthalate]	1	1	–	–
COc1cc(OC)cc(Oc2nccnc2-c2cccnc2)c1 [Compound 50]	1	1	–	–
COc1cc(OC)cc(Oc2ncccc2-c2ccnc(Cl)n2)c1 [Compound 84, 2-chloro-4-(2-(3,5-dimethoxyphenoxy)pyridin-3-yl)pyrimidine]	> 30	10 to 30	–	–
CNC(=O)c1cc(Oc2ncccc2-c2ccnc(C)c2)cc(-n2cccn2)c1 [Compound 88, N-methyl-3-((2′-methyl-[3,4′-bipyridin]-2-yl)oxy)-5-(1H-pyrazol-1-yl)benzamide]	1	1	–	–
CNC(=O)c1cc(OC)cc(Oc2ncccc2-c2cc(C)nc(C)c2)c1 [Compound 99, 3-((2′,6′-dimethyl-[3,4′-bipyridin]-2-yl)oxy)-5-methoxy-N-methylbenzamide]	1	1	–	–
COc1cc(OC)cc(Oc2cncc(-c3ccccc3)n2)c1 [Compound 81, 2-(3,5-dimethoxyphenoxy)-6-phenylpyrazine]	0.001 to 10	0.001 to 10	–	–
Cc1noc(-c2cc(Oc3ncccc3-c3ccnc(N)n3)cc(-c3nc(C)no3)c2)n1 [Compound 22, 4-(2-(3,5-bis(3-methyl-1,2,4-oxadiazol-5-yl)phenoxy)pyridin-3-yl)pyrimidin-2-amine]	> 30	> 30	–	–
CCOCCOc1cc(-c2cccnc2Oc2cc(NC(C)=O)cc(OC)c2)ccn1 [Compound 87, N-(3-((2′-(2-ethoxyethoxy)-[3,4′-bipyridin]-2-yl)oxy)-5-methoxyphenyl)acetamide]	1	1	–	–
COc1cc(OC)cc(Oc2nccnc2-c2cc(OC)cc(OC)c2)c1 [Compound 59, 2-(3,5-dimethoxyphenoxy)-3-(3,5-dimethoxyphenyl)pyrazine]	0.001 to 10	0.001 to 10	–	–
COc1cc(Oc2ncccc2-c2ccncc2)cc(-c2nc(C)no2)c1 [Compound 11, 5-(3-([3,4′-bipyridin]-2-yloxy)-5-methoxyphenyl)-3-methyl-1,2,4-oxadiazole]	1	1	–	–
CNC(=O)c1cc(OC)cc(Oc2ncccc2-c2cc(C)ncn2)c1 [Compound 97, 3-methoxy-N-methyl-5-((3-(6-methylpyrimidin-4-yl)pyridin-2-yl)oxy)benzamide]	1	1	–	–
COc1cc(Oc2ncccc2-c2ccncc2)cc(C(=O)NC2CC2)c1 [Compound 100, 3-([3,4′-bipyridin]-2-yloxy)-N-cyclopropyl-5-methoxybenzamide]	1	1	–	–
